Assay results published in PubChem BioAssay (NCI).
Several values for one entry are separate records, joined by “and”; a condition that tells them apart may be missing. Identical values can stand only once.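 Assay format: 96-well plates, 48-hour exposure. GI50 is the concentration that inhibits growth by half. The concentration for full growth arrest is given as TGI.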

How the values were obtained:
Assay in all cases: NCI tumour cell line growth inhibition, 48 h
DMS 114 small cell lung = tested on: DMS 114 small cell lung
DLD-1 colon = tested on: DLD-1 colon
HOP-18 NSCLC = tested on: HOP-18 NSCLC
LXFL 529 NSCLC = tested on: LXFL 529 NSCLC
DMS 273 small cell lung = tested on: DMS 273 small cell lung
RXF-631 renal = tested on: RXF-631 renal
MDA-N = tested on: MDA-N
SNB-78 CNS = tested on: SNB-78 CNS
M19-MEL melanoma = tested on: M19-MEL melanoma

SMILES	TGI (DMS 114 small cell lung) [µM]	TGI (DLD-1 colon) [µM]	TGI (HOP-18 NSCLC)	TGI (LXFL 529 NSCLC)	TGI (DMS 273 small cell lung)	TGI (RXF-631 renal) [µM]	TGI (MDA-N)	TGI (SNB-78 CNS)	TGI (M19-MEL melanoma)	also measured
CN(C)CCN1N=Nc2cccc3cccc1c23	> 100	> 100	> 100 µM	> 100 µM	87.7 µM	> 100				
O=C(O)CSCC(=O)c1ccccc1							> 100 µM			
Cc1c2cc[n+](C)cc2c(C)c2c1[nH]c1ccc(OC(C)C)cc12		> 100	27.1 µM and 35.4 µM	5.04 µM and 11.3 µM	10.9 µM and 12.5 µM			6.56 µM and > 25.2 µM	6.14 µM and 7.31 µM	GI50 (DLD-1 colon): 1.91 µM and 6.02 µM; GI50 (SNB-78 CNS): 0.427 µM and 3.93 µM
Nc1ccc(CCN2CCN(c3cccc(C(F)(F)F)c3)CC2)cc1	> 100	> 100	> 100 µM	> 100 µM		> 100			> 100 µM	
COc1cccc(/C=C\c2cc(OC)c(OC)c(OC)c2)c1	67.3	> 100		> 100 µM	39.6 µM	> 100		58.9 µM	> 100 µM	
O=C(O)C(Cc1ccccc1-c1ccccc1)C(=O)O							> 100 µM			
O=C(O)C1CCCN1Cc1c[nH]c2ccccc12 (stereo unspecified)							> 100 µM			
CCC12CCC(O)C1N(C)CCC2Sc1ccccc1 (stereo unspecified)	> 100		> 100 µM		> 100 µM	> 100		> 100 µM	> 100 µM	
O=C1CC2(CCCc3sccc32)C(=O)N1 (stereo unspecified)							> 100 µM			
Nc1nc(SCC(=O)O)[nH]c(=O)c1N							> 100 µM			
CC(C)SC1SCC2C(=O)N(C)C3(CC3C)C(=O)OCC(NC(=O)c3nc4ccccc4cc3O)C(=O)NC(C)C(=O)N(C)C1C(=O)N(C)C1(CC1C)C(=O)OCC(NC(=O)c1nc3ccccc3cc1O)C(=O)NC(C)C(=O)N2C (stereo unspecified)							< 0.0001 µM			
COCC1N=C(c2ccc(OC)c(OCc3ccccc3)c2OC)O[C@H]1c1ccccc1 (stereo partly specified)	44.9	> 100		65 µM	38.6 µM			96.2 µM	53.8 µM	
O=C(Nc1ccccc1)O/N=C1/CCCC/C1=C\c1ccccc1	24.8	29.4	29.9 µM	21.4 µM	31.2 µM	47.3		33 µM	34 µM	
O=[N+]([O-])c1ccc2c(c1)OCCOCCOc1ccc([N+](=O)[O-])cc1OCCOCCO2	> 100				> 100 µM			> 100 µM		
COC(=O)C1Cc2c(n(C)c3ccccc23)C(c2ccccc2)N1 (stereo unspecified)	> 100		> 100 µM	> 100 µM	> 100 µM	> 100		> 100 µM	> 100 µM	
C=CC[P@@]1(=O)O[C@H](c2ccccc2)C(C)N1C(C)C (stereo partly specified)	> 100	> 100	> 100 µM	> 100 µM	> 100 µM	> 100		> 100 µM	> 100 µM	
C=C1C(=O)OC2C1C(OC(=O)/C(C)=C/C)CC(O)(CCl)C1C(OC(C)=O)C=C(C)C21O (stereo unspecified)							41.8 µM			
O=c1oc2ccccc2cc1-c1ccc([N+](=O)[O-])cc1							> 100 µM			
Cc1cc(N(CCC#N)CCC#N)ccc1N=Nc1ccccc1[N+](=O)[O-]	> 100	> 100	> 100 µM	> 100 µM	> 100 µM	> 100		> 100 µM	> 100 µM	

SMILES	TGI (DMS 114 small cell lung) [µM]	TGI (DLD-1 colon) [µM]	TGI (HOP-18 NSCLC)	TGI (LXFL 529 NSCLC)	TGI (DMS 273 small cell lung)	TGI (RXF-631 renal) [µM]	TGI (MDA-N)	TGI (SNB-78 CNS)	TGI (M19-MEL melanoma)	also measured
NC(=O)c1csc(C2O[C@@H](COP(=O)(O)OP(=O)(O)OC[C@H]3OC(n4cnc5c(N)ncnc54)[C@H](O)[C@@H]3O)[C@H](O)[C@@H]2O)n1 (stereo partly specified)	> 100	> 100	> 100 µM	> 100 µM	> 100 µM			> 100 µM		
CC(=O)CC(=O)CCCC(=O)Nc1ccc(Cl)cc1Cl		> 100	> 100 µM	> 100 µM	> 100 µM	> 100				
O=C1C2c3[nH]c4ccccc4c3C3CCSCC3C2C(=O)N1c1ccccc1 (stereo unspecified)		> 100		> 100 µM	> 100 µM			> 100 µM	> 100 µM	
CC1=CCP(C(F)(F)F)P(C(F)(F)F)C1 (stereo unspecified)	> 100	> 100	> 100 µM	> 100 µM		> 100		> 100 µM	> 100 µM	
CC(=O)C(C(=N)C#N)C(=O)Nc1ccccc1 (stereo unspecified)							> 100 µM			
O=C1C(c2ccc(Cl)cc2)=[N+]([O-])c2ccccc21	14.3	30.1	58.9 µM	18.6 µM		48.4			> 100 µM	
O=C1c2cccnc2-c2nc(-c3ccccn3)cc3c2c1nc1ccccc13							1.25 µM			GI50 (MDA-N): 0.259 µM
Cc1ccc(C2=[N+]([O-])c3ccccc3C2=O)cc1	28.2	57.2	> 100 µM	22.9 µM		51.7		74.2 µM	> 55.4 µM	
O=NN(CCCl)C(=O)NCc1ccc[n+]([O-])c1	> 100	> 100		> 100 µM		> 100		> 100 µM	> 100 µM	
O=C(c1ccccc1)c1ccc2cccc(O)c2n1	39.1	> 100	> 100 µM		> 100 µM	> 100		> 100 µM	> 100 µM	
Cc1c2ncccc2c(C)c2c1[nH]c1ccc(O)cc12							17.9 µM and 47.5 µM			GI50 (MDA-N): 9.69 µM
N.N.NCCCCN.O=C([O-])CC(=O)[O-].O=C([O-])CC(=O)[O-].[Pt+4].[Pt+4]		> 100	> 100 µM	> 100 µM	> 100 µM			> 100 µM		GI50 (DLD-1 colon): > 100 µM; GI50 (HOP-18 NSCLC): > 100 µM; GI50 (LXFL 529 NSCLC): > 100 µM; GI50 (DMS 273 small cell lung): 89.2 µM; GI50 (SNB-78 CNS): > 100 µM
CC1/C=C/C=C/CC/C=C/C=C/C=C/C=C/C(OC2OC(C)C(O)C(N)C2O)CC2OC(CC(O)C(O)CCC(O)CC(O)CC(O)CC(=O)OC(C)C(C)C1O)CC(O)C2C(=O)O (stereo unspecified)							31.8 µM and 46.7 µg/mL			GI50 (MDA-N): 25.6 µg/mL
N#C[C@]12CC3(CC[C@H]1CC1(C2)OCCO1)OCCO3	> 100	> 100	> 100 µM	> 100 µM	> 100 µM	> 100		> 100 µM	> 100 µM	
O=[N+]([O-])c1ccc(OCCNc2cccc3ccccc23)cc1	> 100	> 100	> 100 µM	> 100 µM	> 100 µM	> 100			> 100 µM	
CCCCCCC(O)C/C=C/CCCCCC/C(C(=O)OC)=C(/O)C(=O)OCC (stereo unspecified)	> 100	> 100	> 100 µM	> 100 µM	> 100 µM	> 100		> 100 µM	> 100 µM	
CC(C)(C)C(=O)Nc1ccccc1Br	> 100	> 100		> 100 µM	> 100 µM				> 100 µM	
O=C1NC(=O)C2=C1CCC2O (stereo unspecified)							> 100 µM			
